Converted amounts (≈) assume the structure as drawn.
How the values were obtained:
[1] = target: T1, Phospho-N-acetylmuramoyl-pentapeptide-transferase (Aquifex aeolicus (strain VF5), UniProt O66465); experiment: Inhibition of Aquifex aeolicus MraY using UDP-MurNAc-pentapeptide as substrate measured after 5 mins by UMP-Glo glycosyltransferase assay
T1 sequence (O66465 whole entry): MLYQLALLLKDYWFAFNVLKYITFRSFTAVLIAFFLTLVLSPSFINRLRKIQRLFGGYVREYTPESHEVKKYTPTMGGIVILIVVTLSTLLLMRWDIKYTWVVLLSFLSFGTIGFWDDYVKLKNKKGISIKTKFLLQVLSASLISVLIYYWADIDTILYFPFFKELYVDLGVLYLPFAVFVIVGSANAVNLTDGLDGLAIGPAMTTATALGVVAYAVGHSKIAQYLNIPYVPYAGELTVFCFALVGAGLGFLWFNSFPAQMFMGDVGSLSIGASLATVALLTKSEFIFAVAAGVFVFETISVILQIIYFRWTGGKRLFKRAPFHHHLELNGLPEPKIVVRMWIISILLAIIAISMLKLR

[2] = tested on: Staphylococcus aureus; experiment: Antibacterial activity against Staphylococcus aureus SA113 assessed as growth inhibition; assay type: functional

IC50 [1]	MIC [2]	Compound
75 µM	54 µg/mL (≈ 60.4 µM)	CCCCCCCCCCCCCCCCC(=O)N[C@@H](CCCNC(=N)N)C(=O)NCCCN[C@H](C(=O)OC)[C@H](O[C@@H]1O[C@H](CN)[C@@H](O)[C@H]1O)[C@@H]1CC[C@H](n2ccc(=O)[nH]c2=O)C1
340 µM		CC(C)(C)OC(=O)[C@@H](NC(=O)OCc1ccccc1)[C@H](O[C@@H]1O[C@H](CN)[C@@H](O)[C@H]1O)[C@@H]1CC[C@H](n2ccc(=O)[nH]c2=O)C1
500 µM		NC[C@H]1O[C@@H](O[C@H]([C@@H]2CC[C@H](n3ccc(=O)[nH]c3=O)C2)[C@H](NC(=O)OCc2ccccc2)C(=O)O)[C@H](O)[C@@H]1O
